# Test results from patent US12297194B2, “N2-phenylpyrimidine-2,4-diamine compounds, and preparation methods and methods of use thereof” (BRIDGE BIOTHERAPEUTICS, INC., priority 2021, dated 2025).
# Key:
# Assay type in all cases: cell-based, murine
# [1] = target: Ba/F3 EGFR Del19/C797S mutants (Homo sapiens, UniProt P00533, C797S, cells depend on it, form not given); experiment: CellTiter-Glo cell viability, Ba/F3 EGFR Del19/C797S cells; conditions: 72 hours, read-out: Ba/F3 EGFR mutant cell (IC50, nM) D/C
# How it was run: (§1)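 Ba/F3 cells expressing wild-type or mutant EGFR were seeded at 2500 cells/well, treated after 24 hours with compound at 0–2000 nM (ten points), and incubated 72 hours at 37° C. Viability was read as cellular ATP by CellTiter-Glo luminescence, and IC50 values were fitted from the dose-response.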
# [2] = target: Ba/F3 EGFR Del19/T790M/C797S mutants (Homo sapiens, UniProt P00533, T790M/C797S, cells depend on it, form not given); experiment: CellTiter-Glo cell viability, Ba/F3 EGFR Del19/T790M/C797S cells; conditions: 72 hours, read-out: Ba/F3 EGFR mutant cell (IC50, nM) D/T/C
# Ba/F3 EGFR Del19/T790M/C797S mutants, sequence (P00533 with tags, fused parts or gaps DEL746-750/T790M/C797S, form open): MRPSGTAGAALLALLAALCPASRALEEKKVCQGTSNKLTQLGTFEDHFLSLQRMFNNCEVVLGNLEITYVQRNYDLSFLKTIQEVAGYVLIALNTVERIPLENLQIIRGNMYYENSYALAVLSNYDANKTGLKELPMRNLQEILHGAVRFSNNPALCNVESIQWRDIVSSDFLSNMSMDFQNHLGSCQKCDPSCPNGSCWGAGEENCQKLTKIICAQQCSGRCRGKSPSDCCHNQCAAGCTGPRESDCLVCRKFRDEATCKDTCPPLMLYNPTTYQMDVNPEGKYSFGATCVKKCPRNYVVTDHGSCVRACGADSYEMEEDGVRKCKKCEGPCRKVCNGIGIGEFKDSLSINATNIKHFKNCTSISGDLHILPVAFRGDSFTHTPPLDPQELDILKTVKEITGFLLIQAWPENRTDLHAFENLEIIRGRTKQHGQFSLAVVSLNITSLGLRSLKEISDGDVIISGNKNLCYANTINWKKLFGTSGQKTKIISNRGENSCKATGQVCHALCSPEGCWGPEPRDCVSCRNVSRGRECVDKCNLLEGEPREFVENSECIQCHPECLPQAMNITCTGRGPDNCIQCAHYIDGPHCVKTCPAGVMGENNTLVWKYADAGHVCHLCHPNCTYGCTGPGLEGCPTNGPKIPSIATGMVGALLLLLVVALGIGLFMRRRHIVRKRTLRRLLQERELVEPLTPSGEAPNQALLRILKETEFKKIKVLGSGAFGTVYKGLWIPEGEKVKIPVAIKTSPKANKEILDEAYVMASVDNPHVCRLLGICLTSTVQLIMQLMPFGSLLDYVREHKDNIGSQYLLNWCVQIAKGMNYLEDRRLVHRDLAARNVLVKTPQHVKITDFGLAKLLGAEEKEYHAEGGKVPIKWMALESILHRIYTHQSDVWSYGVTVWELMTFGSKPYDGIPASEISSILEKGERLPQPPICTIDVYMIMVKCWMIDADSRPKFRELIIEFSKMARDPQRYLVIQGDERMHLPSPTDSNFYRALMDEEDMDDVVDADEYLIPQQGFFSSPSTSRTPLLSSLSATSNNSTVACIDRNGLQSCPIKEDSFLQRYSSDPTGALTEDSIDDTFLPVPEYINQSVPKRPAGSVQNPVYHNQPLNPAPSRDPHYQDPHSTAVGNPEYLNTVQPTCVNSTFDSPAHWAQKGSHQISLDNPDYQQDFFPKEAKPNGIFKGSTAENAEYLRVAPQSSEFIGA
# How it was run: as §1
# [3] = target: Ba/F3 EGFR L858R/C797S mutants (Homo sapiens, UniProt P00533, C797S/L858R, cells depend on it); experiment: CellTiter-Glo cell viability, Ba/F3 EGFR L858R/C797S cells; conditions: 72 hours, read-out: Ba/F3 EGFR mutant cell (IC50, nM) L/C
# Ba/F3 EGFR L858R/C797S mutants, sequence (P00533 whole entry C797S/L858R): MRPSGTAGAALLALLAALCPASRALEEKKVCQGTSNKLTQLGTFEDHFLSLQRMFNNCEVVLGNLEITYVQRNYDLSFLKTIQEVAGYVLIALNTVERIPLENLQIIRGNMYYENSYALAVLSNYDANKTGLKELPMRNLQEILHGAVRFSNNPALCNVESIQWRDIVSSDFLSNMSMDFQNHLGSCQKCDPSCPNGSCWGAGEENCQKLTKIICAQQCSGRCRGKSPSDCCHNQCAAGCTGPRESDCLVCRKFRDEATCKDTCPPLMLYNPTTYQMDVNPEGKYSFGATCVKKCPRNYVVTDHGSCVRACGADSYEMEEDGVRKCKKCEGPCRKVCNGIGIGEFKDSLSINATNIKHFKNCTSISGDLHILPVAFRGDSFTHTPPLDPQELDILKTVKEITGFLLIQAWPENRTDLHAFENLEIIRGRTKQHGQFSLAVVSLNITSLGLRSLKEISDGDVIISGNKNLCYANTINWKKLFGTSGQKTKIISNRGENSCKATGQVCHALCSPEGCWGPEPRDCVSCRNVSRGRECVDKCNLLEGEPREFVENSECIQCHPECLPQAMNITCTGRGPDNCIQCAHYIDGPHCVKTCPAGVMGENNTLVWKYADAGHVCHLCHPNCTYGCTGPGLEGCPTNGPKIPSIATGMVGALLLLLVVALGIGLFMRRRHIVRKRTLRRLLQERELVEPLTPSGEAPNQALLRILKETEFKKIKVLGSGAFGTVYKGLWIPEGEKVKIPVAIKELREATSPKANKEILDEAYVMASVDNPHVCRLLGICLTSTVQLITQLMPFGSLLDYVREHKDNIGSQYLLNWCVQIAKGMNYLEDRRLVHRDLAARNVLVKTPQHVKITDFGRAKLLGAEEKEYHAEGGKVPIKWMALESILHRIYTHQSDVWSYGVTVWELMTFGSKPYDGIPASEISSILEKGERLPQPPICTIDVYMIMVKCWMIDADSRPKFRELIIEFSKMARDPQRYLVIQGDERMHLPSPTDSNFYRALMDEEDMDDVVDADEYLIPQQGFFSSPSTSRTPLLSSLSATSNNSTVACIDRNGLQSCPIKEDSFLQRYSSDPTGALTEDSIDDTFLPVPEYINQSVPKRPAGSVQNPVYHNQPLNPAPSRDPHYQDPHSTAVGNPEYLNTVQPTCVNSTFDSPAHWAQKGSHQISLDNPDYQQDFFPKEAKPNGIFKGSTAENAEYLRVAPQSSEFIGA
# How it was run: as §1
# [4] = target: Ba/F3 EGFR L858R/T790M/C797S mutants (Homo sapiens, UniProt P00533, T790M/C797S/L858R, cells depend on it); experiment: CellTiter-Glo cell viability, Ba/F3 EGFR L858R/T790M/C797S cells; conditions: 72 hours, read-out: Ba/F3 EGFR mutant cell (IC50, nM) L/T/C
# How it was run: as §1
# [5] = target: Ba/F3 EGFR Del19/T790M mutants (Homo sapiens, UniProt P00533, T790M, cells depend on it, form not given); experiment: CellTiter-Glo cell viability, Ba/F3 EGFR Del19/T790M cells; conditions: 72 hours, read-out: Ba/F3 EGFR mutant cell (IC50, nM) D/T
# Ba/F3 EGFR Del19/T790M mutants, sequence (P00533 with tags, fused parts or gaps DEL746-750/T790M, form open): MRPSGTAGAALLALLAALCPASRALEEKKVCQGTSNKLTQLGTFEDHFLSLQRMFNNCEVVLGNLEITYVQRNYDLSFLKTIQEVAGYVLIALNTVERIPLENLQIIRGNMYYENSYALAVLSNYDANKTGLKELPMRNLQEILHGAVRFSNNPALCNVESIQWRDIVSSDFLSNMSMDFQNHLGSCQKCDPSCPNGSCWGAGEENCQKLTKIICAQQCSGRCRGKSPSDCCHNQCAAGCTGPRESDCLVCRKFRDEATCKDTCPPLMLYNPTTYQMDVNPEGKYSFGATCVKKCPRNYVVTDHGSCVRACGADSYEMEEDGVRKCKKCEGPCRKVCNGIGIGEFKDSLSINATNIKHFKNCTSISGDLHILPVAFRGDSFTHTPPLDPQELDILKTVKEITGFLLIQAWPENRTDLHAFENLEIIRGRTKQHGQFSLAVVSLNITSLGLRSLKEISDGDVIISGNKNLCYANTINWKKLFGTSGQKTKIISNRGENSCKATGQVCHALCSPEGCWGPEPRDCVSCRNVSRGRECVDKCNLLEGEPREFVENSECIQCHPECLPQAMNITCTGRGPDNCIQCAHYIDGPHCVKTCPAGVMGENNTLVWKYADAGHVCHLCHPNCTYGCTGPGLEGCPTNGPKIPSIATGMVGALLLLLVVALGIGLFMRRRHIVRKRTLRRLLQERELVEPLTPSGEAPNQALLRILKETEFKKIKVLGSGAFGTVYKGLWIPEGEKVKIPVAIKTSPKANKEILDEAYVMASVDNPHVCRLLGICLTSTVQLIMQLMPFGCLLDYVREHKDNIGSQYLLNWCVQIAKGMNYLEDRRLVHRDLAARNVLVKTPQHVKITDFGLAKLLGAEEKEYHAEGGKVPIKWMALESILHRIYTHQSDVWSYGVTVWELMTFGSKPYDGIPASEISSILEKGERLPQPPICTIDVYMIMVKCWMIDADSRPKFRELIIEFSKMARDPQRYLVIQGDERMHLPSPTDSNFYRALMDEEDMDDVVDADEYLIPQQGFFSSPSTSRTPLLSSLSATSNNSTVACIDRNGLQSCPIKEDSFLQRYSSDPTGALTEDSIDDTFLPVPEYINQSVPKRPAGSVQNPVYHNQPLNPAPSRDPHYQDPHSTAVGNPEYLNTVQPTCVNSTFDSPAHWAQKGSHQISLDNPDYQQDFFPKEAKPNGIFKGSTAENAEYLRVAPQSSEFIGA
# Description: In order to evaluate an inhibitory ability on wild-type Ba/F3 EGFR and Ba/F3 EGFR mutations in Ba/F3 cell lines by the compounds of Formula 1, the experiment was carried out as described below.
# The measurement of activities on Ba/F3 cells harboring wild-type EGFR and EGFR mutants by the compounds of the present invention were determined utilizing the CELLTITER-GLO™ system from Promega, as follows. The CELLTITER-GLO™ assay is a method for measuring the ATP present in cells to determine the cell viability. Ba/F3 EGFR wild-type and Ba/F3 EGFR L858R/C797S (L/C), Ba/F3 EGFR L858R/T790M/C797S (L/T/C), Ba/F3 EGFR Del19/T790M (D/T), Ba/F3 EGFR Del19/C797S (D/C), Ba/F3 EGFR Del19/T790M/C797S (D/T/C) mutant cell lines were maintained in RPMI1640, containing […], 1% penicillin-streptomycin, […] puromycin. Cells were grown in a humidified incubator at 37° C. with […].
# The analysis of an EGFR inhibitory activity by the compounds was carried out in accordance with the analysis reaction recipe below.
# 2500 cells/90 μL were seeded in 96 well cell culture plate, and after 24 hours, treated with the compounds represented by Formula 1 in concentrations of 0, 0.3, 0.9, 2.7, 8.2, 24.7, 74.1, 222.2, 666.7, 2000 (nM). After the reaction of 72 hours, the plate was incubated for 30 minutes at ambient temperature, and then, was further treated with 100 μL of the CELLTITER-GLO™ reagent and was shaken for 10 minutes at ambient temperature. Finally, measurement of the luminescence values were obtained using the SPECTRAMAX™ iD3 (Molecular Devices), and the IC50 values of the compound were analyzed using the GraphPad Prism program (version 9.0.2, GraphPad Software, Inc.).
# Ba/F3 EGFR Wild-type = Ba/F3 EGFR Wild-type (Homo sapiens, UniProt P00533); experiment: CellTiter-Glo cell viability, Ba/F3 EGFR wild-type cells; conditions: 72 hours, read-out: Ba/F3 EGFR mutant cell (IC50, nM) WT
# Ba/F3 EGFR Wild-type, sequence (P00533 whole entry, change not shown): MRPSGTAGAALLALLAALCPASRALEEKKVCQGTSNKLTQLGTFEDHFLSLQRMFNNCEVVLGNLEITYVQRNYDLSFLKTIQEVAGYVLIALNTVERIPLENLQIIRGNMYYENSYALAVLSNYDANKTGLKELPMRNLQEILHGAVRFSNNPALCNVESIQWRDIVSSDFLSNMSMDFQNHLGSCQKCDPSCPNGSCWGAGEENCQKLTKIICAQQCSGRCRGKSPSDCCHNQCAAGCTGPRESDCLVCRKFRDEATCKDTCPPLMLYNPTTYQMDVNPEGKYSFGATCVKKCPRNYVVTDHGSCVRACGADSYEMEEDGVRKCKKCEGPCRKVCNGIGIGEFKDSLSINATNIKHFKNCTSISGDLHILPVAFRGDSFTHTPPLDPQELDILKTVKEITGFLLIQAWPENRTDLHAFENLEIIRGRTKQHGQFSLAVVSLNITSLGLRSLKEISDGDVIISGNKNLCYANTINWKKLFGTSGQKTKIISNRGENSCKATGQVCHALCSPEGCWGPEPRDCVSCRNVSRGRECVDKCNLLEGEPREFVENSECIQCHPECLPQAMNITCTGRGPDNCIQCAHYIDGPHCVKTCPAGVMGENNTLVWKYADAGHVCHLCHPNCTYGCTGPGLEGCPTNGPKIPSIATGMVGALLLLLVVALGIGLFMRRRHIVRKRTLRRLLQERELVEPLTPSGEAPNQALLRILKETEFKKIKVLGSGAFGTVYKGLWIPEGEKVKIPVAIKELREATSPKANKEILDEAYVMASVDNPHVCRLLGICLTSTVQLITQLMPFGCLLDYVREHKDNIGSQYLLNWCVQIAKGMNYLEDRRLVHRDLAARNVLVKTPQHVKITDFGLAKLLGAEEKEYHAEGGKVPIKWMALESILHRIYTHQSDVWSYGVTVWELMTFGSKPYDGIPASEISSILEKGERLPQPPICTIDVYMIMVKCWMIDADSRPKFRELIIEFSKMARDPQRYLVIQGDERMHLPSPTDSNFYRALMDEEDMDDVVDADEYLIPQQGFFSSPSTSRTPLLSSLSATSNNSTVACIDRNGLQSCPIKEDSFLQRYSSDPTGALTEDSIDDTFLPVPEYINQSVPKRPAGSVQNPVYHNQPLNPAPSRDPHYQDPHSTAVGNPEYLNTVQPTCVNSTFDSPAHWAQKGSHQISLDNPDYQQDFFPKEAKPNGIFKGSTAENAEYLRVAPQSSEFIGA
# How it was run: as §1
smiles,measurement,setting,value
"CCc1cc(Nc2ncc(Cl)c(Nc3ccc4nccnc4c3NS(C)(=O)=O)n2)c(OC)cc1N1CCC(N2CC3CCC2CN3C)CC1 (stereo not drawn) [Example A45, N-(6-((5-chloro-2-((5-ethyl-2-methoxy-4-(4-(5-methyl-2,5-diazabicyclo[2.2.2]octan-2-yl)piperidin-1-yl)phenyl)amino)pyrimidin-4-yl)amino)quinoxalin-5-yl)methanesulfonamide]",GI50,[1],10 nM
same,GI50,[2],7 nM
same,GI50,[3],103 nM
same,GI50,[4],71 nM
same,GI50,[5],9 nM
same,GI50,Ba/F3 EGFR Wild-type,734 nM
"CCc1cc(Nc2ncc(Br)c(Nc3ccc4nccnc4c3NS(C)(=O)=O)n2)c(OC)cc1N1CCC(N2CC3CCC2CN3C)CC1 (stereo not drawn) [Example A46, N-(6-((5-bromo-2-((5-ethyl-2-methoxy-4-(4-(5-methyl-2,5-diazabicyclo[2.2.2]octan-2-yl)piperidin-1-yl)phenyl)amino)pyrimidin-4-yl)amino)quinoxalin-5-yl)methanesulfonamide]",GI50,[1],12 nM
same,GI50,[2],8 nM
same,GI50,[3],113 nM
same,GI50,[4],43 nM
same,GI50,[5],7 nM
same,GI50,Ba/F3 EGFR Wild-type,739 nM
"CCc1cc(Nc2ncc(Cl)c(Nc3ccc4nccnc4c3N(C)S(C)(=O)=O)n2)c(OC)cc1N1CCC(N2CC3CCC2CN3C)CC1 (stereo not drawn) [Example A47, N-(6-((5-chloro-2-((5-ethyl-2-methoxy-4-(4-(5-methyl-2,5-diazabicyclo[2.2.2]octan-2-yl)piperidin-1-yl)phenyl)amino)pyrimidin-4-yl)amino)quinoxalin-5-yl)-N-methylmethanesulfonamide]",GI50,[1],7 nM
same,GI50,[2],25 nM
same,GI50,[3],125 nM
same,GI50,[4],64 nM
same,GI50,[5],17 nM
same,GI50,Ba/F3 EGFR Wild-type,730 nM
"CCc1cc(Nc2ncc(Br)c(Nc3ccc4nccnc4c3N(C)S(C)(=O)=O)n2)c(OC)cc1N1CCC(N2CC3CCC2CN3C)CC1 (stereo not drawn) [Example A48, N-(6-((5-bromo-2-((5-ethyl-2-methoxy-4-(4-(5-methyl-2,5-diazabicyclo[2.2.2]octan-2-yl)piperidin-1-yl)phenyl)amino)pyrimidin-4-yl)amino)quinoxalin-5-yl)-N-methylmethanesulfonamide]",GI50,[1],6 nM
same,GI50,[2],17 nM
same,GI50,[3],112 nM
same,GI50,[4],28 nM
same,GI50,[5],9 nM
same,GI50,Ba/F3 EGFR Wild-type,601 nM
"CCc1cc(Nc2ncc(Br)c(Nc3ccc4nccnc4c3N(C)S(C)(=O)=O)n2)c(OC)cc1N1CCN(C2CCN(C)CC2)CC1 [Example A49, N-(6-((5-bromo-2-((5-ethyl-2-methoxy-4-(4-(1-methylpiperidin-4-yl)piperazin-1-yl)phenyl)amino)pyrimidin-4-yl)amino)quinoxalin-5-yl)-N-methylmethane sulfonamide]",GI50,[1],10 nM
same,GI50,[2],4 nM
same,GI50,[3],15 nM
same,GI50,[4],64 nM
same,GI50,[5],4 nM
same,GI50,Ba/F3 EGFR Wild-type,243 nM
"COc1cc(N2CCC(N(C)C)CC2)c(C)cc1Nc1ncc(Br)c(Nc2ccc3nccnc3c2NS(C)(=O)=O)n1 [Example B1, N-(6-((5-bromo-2-((4-(4-(dimethylamino)piperidin-1-yl)-2-methoxy-5-methylphenyl)amino)pyrimidin-4-yl)amino)quinoxalin-5-yl)methanesulfonamide]",GI50,[1],38 nM
same,GI50,[2],7 nM
same,GI50,[3],64 nM
same,GI50,[4],28 nM
same,GI50,[5],8 nM
same,GI50,Ba/F3 EGFR Wild-type,302 nM
"COc1cc(N2CCC(N(C)C)CC2)c(C)cc1Nc1ncc(Br)c(Nc2ccc3nccnc3c2N(C)S(C)(=O)=O)n1 [Example B7, N-(6-((5-bromo-2-((4-(4-(dimethylamino)piperidin-1-yl)-2-methoxy-5-methylphenyl)amino)pyrimidin-4-yl)amino)quinoxalin-5-yl)-N-methylmethanesulfonamide]",GI50,[1],34 nM
same,GI50,[2],8 nM
same,GI50,[3],98 nM
same,GI50,[4],33 nM
same,GI50,[5],21 nM
same,GI50,Ba/F3 EGFR Wild-type,595 nM
